Patent EP0885869A1, “THERAPEUTIC AGENT FOR DIABETES” (Japan Tobacco Inc., priority 1996, dated 1997)
Where two headings read alike, the source gives them in different places.

Tests used:
fasted rats [1] = assay: Glucose tolerance test using fasted rats; format: in vivo, Male Wistar rats; details: for inhibition in vivo at 1 mg/kg / inhibition in vivo at 10 mg/kg / inhibition in vivo at 30 mg/kg / inhibition in vivo at 100 mg/kg: Rattus norvegicus, 30 min before glucose loading (1 g/kg i.p.); for inhibition in vivo at 1 mg/kg: dose 1 mg/kg oral; for inhibition in vivo at 10 mg/kg: dose 10 mg/kg oral; for blood glucose in hyperglycemia at 30 min after glucose loading / blood glucose level 120 min later when hyperglycemia was not observed: oral administration, versus control, Fig. 1 (Example 93), Fig. 2 (Example 65, various doses); for inhibition in vivo at 30 mg/kg: dose 30 mg/kg oral; for inhibition in vivo at 100 mg/kg: dose 100 mg/kg oral
Method: Glucose tolerance test using fasted rats
Glucose (1 g/kg) was intraperitoneally administered and blood (0.2 ml) was taken at 30, 60 and 120 minutes later from the tail vein. […] As a control, used was carboxymethylcellulose. The suppression of increase in blood glucose was expressed by inhibition ratio (%) in the group administered with test drug, relative to the increase in blood glucose in the control group at 30 min after glucose loading, which was taken as 100%. The blood glucose after 120 min was also shown by the ratio (%) of changes relative to the control.

fasted rats [2] = assay: Effects on blood glucose level of fasted rats; format: in vivo, Male Wistar rats; details: oral administration to rats fasted for 16 hr, blood at 30, 60 and 120 minutes; Fig. 4
Method: Effects on blood glucose level of fasted rats
As a control, used was carboxymethylcellulose, and blood glucose after administration of tolbutamide and the compounds of the present invention was determined.

fasted rats [3] = test system: fasted rats
[4] = 0.5 h, inhibition of increase in blood glucose relative to control at 30 min, read-out: ratio of decrease at 30 min later(%)
[5] = 2 h, blood glucose after 120 min, ratio of changes relative to control, read-out: ratio of decrease at 120 min later(%)

| SMILES | inhibition in vivo at 1 mg/kg (fasted rats [1]; [4]) | inhibition in vivo at 10 mg/kg (fasted rats [1]; [4]) | inhibition in vivo at 1 mg/kg (fasted rats [1]; [5]) | inhibition in vivo at 10 mg/kg (fasted rats [1]; [5]) | inhibition in vivo at 30 mg/kg (fasted rats [1]; [4]) | inhibition in vivo at 30 mg/kg (fasted rats [1]; [5]) | other results |
| --- | --- | --- | --- | --- | --- | --- | --- |
| O=C1CC(C(=O)c2ccccc2)CO1 (racemic) [Example 81, (±)-4-benzoyldihydro-2(3H)-furanone] | 23.7% | 20.7% | 1.7% | 6% |  |  |  |
| O=C1CC(C(=O)c2ccc(-c3ccccc3)cc2)CO1 (racemic) [Example 82, (±)-dihydro-4-(4'-phenylbenzoyl)-2(3H)-furanone] | 24.6% |  | -8.2% |  |  |  |  |
| CC1(C(=O)c2ccc(-c3ccccc3)cc2)CCC(=O)O1 (single isomer, unassigned; (-)) [Example 93, (-)-dihydro-5-methyl-5-(4'-phenylbenzoyl)-2(3H)-furanone] |  |  |  |  |  |  | blood glucose in hyperglycemia at 30 min after glucose loading (fasted rats [1]): significantly decreased the blood glucose; blood glucose level 120 min later when hyperglycemia was not observed (fasted rats [1]): did not unnecessarily lower the blood glucose level; fasting blood glucose (fasted rats [2]): did not lower the fasting blood glucose |
| CC(=O)CCC(=O)c1ccccc1 [Example 1, 1-phenyl-1,4-pentanedione] |  |  |  |  | 18.9% | 4.1% | inhibition in vivo at 100 mg/kg (fasted rats [1]; [4]): 14.9%; inhibition in vivo at 100 mg/kg (fasted rats [1]; [5]): 1.1% |
| CC(=O)CCC(=O)c1ccc(-c2ccccc2)cc1 [Example 2, 1-(4-biphenylyl)-1,4-pentanedione] |  |  |  |  |  |  | inhibition in vivo at 100 mg/kg (fasted rats [1]; [4]): 29.7%; inhibition in vivo at 100 mg/kg (fasted rats [1]; [5]): 3.8% |
| CC(=O)CCC(=O)C1CCCCC1 [Example 5, 1-cyclohexyl-1,4-pentanedione] |  |  |  |  |  |  | inhibition in vivo at 100 mg/kg (fasted rats [1]; [4]): 21.4%; inhibition in vivo at 100 mg/kg (fasted rats [1]; [5]): 7.3% |
| CC(=O)CCC(=O)C1(C)CCCCC1 [Example 6, 1-(1-methyl-1-cyclohexyl)-1,4-pentanedione] |  |  |  |  |  |  | inhibition in vivo at 100 mg/kg (fasted rats [1]; [4]): 19.8%; inhibition in vivo at 100 mg/kg (fasted rats [1]; [5]): 15% |
| CC(=O)CCC(=O)c1ccc(CO)cc1 [Example 20, 1-(4-hydroxymethylphenyl)-1,4-pentanedione] |  |  |  |  | 21.3% | 10.7% |  |
| O=C(O)CCC(=O)c1ccccc1 [Example 46, 4-oxo-4-phenylbutanoic acid] | 22.5% | 19.8% | 10.3% | -7% |  |  |  |
| O=C(O)CCC(=O)c1ccc(-c2ccccc2)cc1 [Example 47, 4-(4-biphenylyl)-4-oxobutanoic acid] | 26.5% | 20.7% | 14.7% | 4.7% | 29.1% | 6.8% |  |
| O=C(O)CCC(=O)c1ccc(CO)cc1 [Example 49, 4-[4-(hydroxymethyl)phenyl]-4-oxobutanoic acid] |  | 25.2% |  | 2.2% |  |  |  |
| O=C(O)CCC(=O)C1CCCCC1 [Example 58, 4-cyclohexyl-4-oxobutanoic acid] | 12.5% | 26.1% | -0.9% | 4.8% | 26.7% | -2.8% |  |
| CC1(C(=O)CCC(=O)O)CCCCC1 [Example 61, 4-(1-methylcyclohexyl)-4-oxobutanoic acid] |  |  |  |  | 31.5% | -5.7% |  |
| C[C@H]1CC[C@H](C(=O)CCC(=O)O)CC1 [Example 65, trans-4-(4-methylcyclohexyl)-4-oxobutanoic acid] |  | 31.7% |  | 5% | 41.2% | 10.5% | blood glucose in hyperglycemia at 30 min after glucose loading (fasted rats [1]): tends to show significant decrease in the blood glucose level; blood glucose level 120 min later when hyperglycemia was not observed (fasted rats [1]): does not unnecessarily lower the blood glucose level |
| O=C(CC(C(=O)O)C(=O)O)c1ccc(-c2ccccc2)cc1 [Example 69, 2-[2-(4-biphenylyl)-2-oxoethyl]propanedioic acid] | 22.1% | 24.6% | 4.9% | 3% |  |  |  |
| O=C(O)CCC(=O)c1ccc2ccccc2c1 [Example 74, 4-(2-naphthyl)-4-oxobutanoic acid] |  | 21.5% |  | -0.2% |  |  |  |
| CC(=O)NCC(=O)c1ccccc1 [Example 80, 2-acetaminoacetophenone] | 15.5% | 12.4% | -2.4% | -1.5% |  |  |  |
| CCCCNC(=O)NS(=O)(=O)c1ccc(C)cc1 [tolbutamide] |  |  |  |  |  |  | effect as a therapeutic agent for diabetes for treating hyperglycemia (fasted rats [3]; oral, in the dose that does not cause hypoglycemia, Fig. 3): did not show effective results; blood glucose 120 min later (fasted rats [3]; rat, in vivo, po): induced hypoglycemia; fasting blood glucose (fasted rats [2]): lowered the fasting blood glucose |
